We go through 1 molecule from patent publication US20160375155A1, “Collagen Imaging Compositions” (Collagen Medical, LLC, priority 2015, published 2016).

Molecules are shown by their SMILES.

The test system of data set [1] is hypoperfused vs normally perfused myocardium. The data set is classed as in vivo, canine. As for the experimental part: To mimic severe ischemia, a canine model was used in which an inflatable variable vascular occluder was placed around the left anterior descending coronary artery (LAD) to allow occlusion and reperfusion. Imaging was performed on a 3 T clinical scanner 4 days after implantation of the occluder. The conventional saturation recovery pulse sequence for stress perfusion imaging was compared with a segmented inversion method. The purpose of the segmented inversion method was to leverage the steady-state properties of Compound ID No. 1. This segmented inversion recovery pulse sequence provides greater T1 weighting, higher spatial resolution, and greater myocardial tissue contrast. Additionally, since imaging is delayed, the entire heart can be imaged. After baseline MRI scanning, the balloon was inflated. Compound ID No. 1 was administered as an i.v. bolus at a dose of 7.5 μmol/kg one minute after coronary artery occlusion. The occlusion was maintained for an additional 4 minutes, after which blood flow was restored. Imaging was performed prior to occlusion release and at multiple time points following reperfusion (up to 120 minutes after reperfusion, see FIG. 20)
To assess relative perfusion, labeled microspheres were administered at 3 timepoints in the study. La-labeled microspheres were given before coronary artery occlusion, Au-labeled microspheres were given during coronary artery occlusion, and Lu-labeled microspheres were given after reperfusion. In addition, prior to euthanasia, the variable occluder was re-inflated and fluorescent microspheres were administered in combination with KCl to arrest the heart and visually delineate the area of hypo-perfusion. The animal was sacrificed at ca. 120 minutes post Compound ID No. 1 and the heart removed and sectioned according to American Heart Association guidelines (M D Cerqueira et al, Circulation, 2002, 105:539-42). At autopsy under ultraviolet light, the hypo-perfused myocardium was differentiated from normal myocardium due to the lack of fluorescence in the hypo-perfused tissue. Based on the fluorescence, a sample of the ischemic territory and a sample of the remote myocardium were taken for ex vivo analysis. These tissue samples were weighed, digested in nitric acid, and analyzed for the elements La, Au, Lu (the three microsphere injections) and gadolinium (Compound ID No. 1) using ICP-MS. Concentrations in the ischemic tissue were compared to that of the remote myocardium to assess regional flow and probe uptake.
Data were quantitatively evaluated at pre-contrast, at 6 minutes post-contrast, and 15 minutes post-contrast using signal-to-noise ratios (SNR) for normally perfused myocardium, SNR for hypo-perfused myocardium, and contrast to noise ratio (CNR) for normal-to-hypoperfused myocardium, Tables 8-10 and FIG. 23. […]

The target of data set [2] is Native canine Collagen Type I and III protein. Nature of the data set: Collagen binding assay, dried dog collagen plate. The settings on record: 37° C., pH 7.4; collagen 5 μM; fit to 1 binding site. As for the experimental part:
Canine collagen (Native canine Collagen Type I and III protein, YO protein AB, cat#739) is dissolved in 0.5 M acetic acid at 3.3 mg/ml by vortexing and shaking overnight at 4° C. The solution is then dialyzed against 10 mM Phosphate (NaH2PO4), pH 4.2 at 4° C. with three changes of the dialysis buffer.
Ice-cold 1×PBS pH 10.8 is added to the collagen solution for a final collagen concentration of 10 μM, pH 7.4. Collagen solutions are gelled and dried down in the wells of a 96 well microtiter plate (Corning Polystyrene Flat Bottom, cat#3641). 70 μl of 10 μM collagen is aliquoted into each well in every other lane in the plate (48 wells) and the plate is incubated at 37° C. for 18 hours to form a gel and evaporate to dryness. Ungelled collagen is removed by washing the collagen films with 200 μl 1×PBS pH 7.4 (four times, 15 min per wash). The thin collagen fibril film remains, coating the bottom of each well. After washing by PBS the plate is again dried at 37° C. for 2 hours and is stored at −20° C. The final well content of gelled collagen is measured by determination of hydroxyproline and is around 180 μg/ml.
a serial dilution of 0.2 μM-30 μM of the peptide chelate is prepared in PBS, pH 7.4 (˜300 μL of solution for each concentration). 90 μl of each concentration is also reserved in a HPLC glass vial as a sample to measure the total concentration. 140 μL of each dilution of peptide chelate is added to wells containing and non-containing collagen (control for nonspecific plastic binging). The plate is then incubated on a shaker table (300 rpm) for 2 hours at room temperature to allow the compound to bind. […] The concentration of free, unbound compound in the sample supernatants and the concentration of compound in the reserved (total) sample are determined by ICP-MS (Agilent 7500, gadolinium concentration). The concentration of compound bound to collagen is determined as [bound]=[total]−[unbound].
The binding of compounds to human, rat and dog collagen (5 μM) was measured over the concentration range 0.2-5 μM of Comp ID Nos.: 1-4. […]

Data set [3] can be described thus: Pharmacokinetics (rat), plasma gadolinium by ICP-MS. The data set is classed as in vivo, Sprague Dawley rats. The settings on record: 1.3 umol/kg iv bolus in 80 mM sucrose, pH 7, 2-90 minutes. As for the experimental part: Compound ID No. 1 was formulated at pH 7 in 80 mM sucrose and administered to Sprague Dawley rats (n=2) at dose of 1.3 umol/kg using a bolus IV injection. Plasma was sampled at 2, 5, 15, 30, and 90 minutes post-injection and analyzed for gadolinium content using ICP-MS (FIG. 15).

As usually defined, the Kd is the equilibrium constant for the complex coming apart. The low end stands for higher affinity, the high end for lower affinity.

`CC(C)C[C@H](NC(=O)[C@@H]1CSSC[C@H](NC(=O)[C@H](Cc2c[nH]cn2)NC(=O)[C@H](Cc2c[nH]c3ccccc23)NC(=O)[C@H](CCCCNC(=O)CC[C@H](C(=O)O)N2CCN(CC(=O)O)CCN(CC(=O)O)CCN(CC(=O)O)CC2)NC(=O)CNC(=O)CC[C@H](C(=O)O)N2CCN(CC(=O)O)CCN(CC(=O)O)CCN(CC(=O)O)CC2)C(=O)N[C@@H]([C@@H](C)O)C(=O)N[C@@H]([C@@H](C)O)C(=O)N[C@@H](CCCCNC(=O)CC[C@H](C(=O)O)N2CCN(CC(=O)O)CCN(CC(=O)O)CCN(CC(=O)O)CC2)C(=O)N[C@@H](Cc2ccccc2)C(=O)N2CCC[C@H]2C(=O)N[C@@H](Cc2c[nH]cn2)C(=O)N[C@@H](Cc2c[nH]cn2)C(=O)N[C@@H](Cc2ccc(O)cc2)C(=O)N1)C(=O)N[C@@H](Cc1ccc(O)cc1)C(=O)N[C@@H](Cc1ccc(-c2ccccc2)cc1)C(N)=O` [Compound ID No. 1]: the “ΔCNR relative to EP-3600 study” value in data set [1] (7.5 μmol/kg vs 12.3 μmol/kg EP-3600 (pig, literature)) is listed as 3 to 4 fold. Moreover, the “visualization of myocardial perfusion defect” value in data set [1] (MRI after 7.5 μmol/kg) is “readily visualized”. The “change in SNR of hypoperfused myocardium vs pre-contrast” value in data set [1] (post injection) is listed as “not significantly higher compared to the pre-contrast image”. The “change in SNR of normally perfused myocardium vs pre-contrast” value in data set [1] (post injection, persists at 15 min, P<0.01) is “strong and significant increase in SNR”. This molecule showed a dissociation constant Kd in data set [2] of 4.4 µM. In addition, in data set [3], the “pharmacokinetic profile (plasma gadolinium)” value was “rapid initial blood clearance”.
